Reference: patent publication US20070060655A1, “Use of agomelatine in obtaining medicaments intended for the treatment of sleep disorders in the depressed patient” (LES LABORATOIRES SERVIER, priority 2005, published 2007)

What was measured:
Type in all cases: in vivo, human
[1] = tested on: sleep disorders in the depressed patient; assay: double-blind clinical study over 6 weeks in comparison with mirtazapine, polysomnographic recording of sleep; conditions: 6 weeks of treatment
Source text: The action specific to agomelatine on sleep disorders in the depressed patient is established in comparison with mirtazapine. This study, carried out as a double-blind over 6 weeks of treatment, has, as its principal criterion of efficacy, the polysomnographic recording of sleep. The Hamilton Scale of Depression allows the antidepressant efficacy to be documented.

[2] = tested on: patients with a characterised depressive state; assay: double-blind clinical study over 6 weeks compared with venlafaxine (Hamilton Scale of Depression, Leeds Sleep Evaluation Questionnaire)
Experimental: Another study evaluating sleep improvement was carried out in patients with a characterised depressive state as a double blind over 6 weeks compared with venlafaxine. After one week placebo, 332 patients were randomised: 165 received 25 mg/day of agomelatine and 167 received 75 mg/day of venlafaxine for 2 weeks. After 2 weeks of treatment, if clinical improvements obtained were found insufficient, the doses for some patients were doubled to 50 mg/day of agomelatine or 150 mg/day of venlafaxine for the following weeks.

[3] = tested on: patients with a characterised depressive state; assay: pilot study of sleep polysomnographic parameters in 15 patients; conditions: agomelatine 25 mg; polysomnography
Experimental: Lastly, effects of agomelatine on the sleep polysomnographic parameters were evaluated in a pilot study carried out in 15 patients with a characterised depressive state. […] Furthermore, agomelatine increase the total duration of sleep, reduce the number of nocturnal wakenings, and as a consequence improve sleep efficacy.

[4] = versus venlafaxine, p less than or equal to 0.001

## COc1ccc2cccc(CCNC(C)=O)c2c1 [agomelatine, N-[2-(7-methoxy-1-naphthyl)ethyl]acetamide]
[1]
  efficacy in the treatment of sleep disorders in the depressed patient (polysomnographic recording of sleep): especially effective
[2]; agomelatine 25 mg/day (up to 50 mg/day) versus venlafaxine 75 mg/day (up to 150 mg/day), 6 weeks
  antidepressant efficacy (Hamilton Scale of Depression): comparable efficacy of agomelatine versus venlafaxine
[2]; [4]
  "sensation of well-being": equally significant improvement
  "sleepiness during the day": equally significant improvement
[2]; versus venlafaxine, p=0.015
  LSEQ item "quality of sleep" (QOS): appreciably greater efficacy
[2]; versus venlafaxine, significant difference from the first week (p=0.007), continuing during the 6 weeks
  LSEQ item "ease of getting to sleep" (GTS): more important and faster to appear than for venlafaxine
[3]
  REM (rapid eye movements) sleep: without alteration
  absolute and relative durations of cycles 3 and 4 of the recording of the electroencephalographic activity: significantly improved
  number of nocturnal wakenings: reduce
  onset of the beneficial effects on sleep: from the first week of treatment
  sleep efficacy: improve
  sleep physiological structure: Restoration of the sleep physiological structure was observed
  total duration of sleep: increase
